The values below come from ChEMBL document CHEMBL3102825, “Exploration of a series of 5-arylidene-2-thioxoimidazolidin-4-ones as inhibitors of the cytolytic protein perforin” (J Med Chem, 2013).

Each structure is given as a SMILES string.

The series is described as follows: Aqueous solubility of the compound. The class given is physicochemical.
Usually solubility stands for the concentration that dissolves in the medium under given conditions. Read a high solubility as a readily soluble substance. For the compound `O=C1NC(=S)[N-]/C1=C/c1ccc(-c2ccc3c(c2)COC3=O)s1.[Na+]`, the solubility amounted to 43 µg/mL. As to `O=C1NC(=S)[N-]/C1=C/c1ccc(-c2ccc3c(c2)C(=O)NCC3)s1.[Na+]`, the concentration in solution (solubility) came to 37.2 µg/mL. The solubility values of the last two compounds are within 1.5-fold of each other. `O=C1NC(=S)[N-]/C1=C/c1ccc(-c2ccc3c(c2)CCNC3=O)s1.[Na+]` showed a solubility of 1570 µg/mL.

`O=C1[N-]/C(=C/c2ccc(-c3ccc4c(c3)CNC4=O)s2)C(=O)N1.[Na+]` yielded a solubility of 136 µg/mL. `CC1c2cc(-c3ccc(/C=C4/[N-]C(=S)NC4=O)s3)ccc2C(=O)N1C.[Na+]` (stereo not given) had a solubility of 1410 µg/mL. As for `O=C1NC(=S)[N-]/C1=C/c1ccc(-c2ccc3c(c2)CN(CCCO)C3=O)s1.[Na+]`, the solubility amounted to 10200 µg/mL. In the case of `CCOC(=O)N1Cc2cc(-c3ccc(/C=C4/[N-]C(=S)NC4=O)s3)ccc2C1=O.[Na+]`, the solubility amounted to 397 µg/mL. As for `O=C1NC(=S)[N-]/C1=C/c1ccc(-c2ccc3c(c2)CN(CCO)C3=O)s1.[Na+]`, the solubility is 3430 µg/mL. The figure for `CN1Cc2cc(-c3ccc(/C=C4/[N-]C(=S)NC4=O)s3)ccc2C1=O.[Na+]` is 151 µg/mL.

`O=C1NC(=S)[N-]/C1=C/c1ccc(-c2ccc3c(c2)CNC3=O)s1.[Na+]` registered a solubility of 140 µg/mL.
